Test results taken from publication PMC4992025, “A Colorimetric Microplate Assay for DNA-Binding Activity of His-Tagged MutS Protein” (Molecular Biotechnology, 2016).

Molecular target: T1, TthMutS (Thermus thermophilus, UniProt Q56239)
T1 construct: gene mutS; N-terminal His-tag translational fusion, tag kept; expressed in E. coli BL21(DE3)pLysS; IMAC purified; immobilized on nickel plate; 92 kDa monomer (stated for MutS generally)
T1 sequence (Q56239 2-819): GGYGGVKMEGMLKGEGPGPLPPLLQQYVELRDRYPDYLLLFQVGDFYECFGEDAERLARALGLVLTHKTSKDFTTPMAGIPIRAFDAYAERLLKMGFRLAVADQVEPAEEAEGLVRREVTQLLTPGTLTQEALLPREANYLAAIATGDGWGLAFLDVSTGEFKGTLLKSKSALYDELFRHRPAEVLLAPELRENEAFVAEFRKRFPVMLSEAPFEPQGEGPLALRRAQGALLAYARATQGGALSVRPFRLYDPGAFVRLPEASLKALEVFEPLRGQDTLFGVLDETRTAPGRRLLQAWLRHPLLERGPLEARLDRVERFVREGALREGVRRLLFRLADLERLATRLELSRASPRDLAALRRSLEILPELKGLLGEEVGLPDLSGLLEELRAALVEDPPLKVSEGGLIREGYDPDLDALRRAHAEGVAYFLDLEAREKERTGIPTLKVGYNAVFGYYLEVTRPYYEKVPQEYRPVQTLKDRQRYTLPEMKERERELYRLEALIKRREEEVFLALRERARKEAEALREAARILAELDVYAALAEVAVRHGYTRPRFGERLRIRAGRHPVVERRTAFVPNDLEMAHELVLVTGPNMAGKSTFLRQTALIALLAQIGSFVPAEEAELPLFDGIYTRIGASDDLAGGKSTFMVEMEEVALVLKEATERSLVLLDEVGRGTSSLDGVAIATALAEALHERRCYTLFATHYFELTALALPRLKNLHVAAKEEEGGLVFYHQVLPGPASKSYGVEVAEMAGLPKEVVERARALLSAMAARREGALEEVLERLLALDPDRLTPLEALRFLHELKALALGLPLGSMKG
Test: colorimetric nickel-plate DNA mismatch binding assay (A620)
Format: biochemical
Details: 1 mM ADP; 300 mM salt (PBSx2); room temperature; immobilized his-tagged protein; modulator of TG49 mismatch versus TA49 DNA binding

SMILES: Nc1ncnc2c1ncn2[C@@H]1O[C@H](COP(=O)(O)OP(=O)(O)O)[C@@H](O)[C@H]1O [ADP]
- colorimetric nickel-plate DNA mismatch binding assay (A620): In the presence of ADP, the specificity of MutS from T. thermophilus strongly increased
